The record followed here is US20040038855A1 (priority 1999, published 2004).

pKi: −log10 of the molar value.

A word on the pKi: it is −log10 of the Ki, conventionally taken in molar units. In general, Ki refers to the dissociation constant of the complex between target and ligand, obtained from inhibition or displacement.

T1 sequence (P14416 whole entry): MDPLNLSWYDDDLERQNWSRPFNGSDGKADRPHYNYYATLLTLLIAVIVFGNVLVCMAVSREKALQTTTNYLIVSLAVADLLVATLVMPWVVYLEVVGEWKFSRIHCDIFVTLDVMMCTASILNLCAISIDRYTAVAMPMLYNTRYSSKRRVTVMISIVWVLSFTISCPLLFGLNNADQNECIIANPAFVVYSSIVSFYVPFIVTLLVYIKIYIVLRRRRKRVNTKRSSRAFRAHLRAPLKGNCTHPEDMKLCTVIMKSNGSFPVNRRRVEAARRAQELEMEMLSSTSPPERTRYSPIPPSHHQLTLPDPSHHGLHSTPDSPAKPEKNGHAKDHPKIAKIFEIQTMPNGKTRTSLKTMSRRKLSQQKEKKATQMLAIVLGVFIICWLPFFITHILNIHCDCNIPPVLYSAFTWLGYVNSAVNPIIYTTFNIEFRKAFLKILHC

The first experiment has as its target T1, human Dopamine D2 receptor (Homo sapiens, UniProt P14416).
T1 construct: purchased BioSignal, Inc. (Montreal, Canada)
The experiment is described as follows: Binding affinity at the human dopamine D2 receptor. The settings on record: Table 3c; read-out: hD2 Ki. From the text: (§1) Other receptors: Cell membranes expressing human dopamine D1, D2, D4 and rat D3 receptors were purchased through BioSignal, Inc. (Montreal, Canada). Binding assays using the histamine H1 receptor; dopamine receptors; and α1A, α1B, and α2 adrenergic receptors may be carried out according to the procedures described in U.S. Pat. No. 5,780,485, the disclosure of which is hereby incorporated by reference in its entirety into this application. Binding assays using the dopamine D5 receptor may be carried out according to the procedures described in U.S. Pat. No. 5,882,855, the disclosure of which is hereby incorporated by reference in its entirety into this application. Binding assays for the human α1D adrenergic receptor may be carried out according to the procedures described in U.S. Pat. No. 6,156,518, the disclosure of which is hereby incorporated by reference in its entirety into this application.
For `COc1cccc(CC(=O)Nc2cccc(C3CCN(CCCC(=O)c4ccc(Oc5ccccc5)cc4)CC3)c2)c1` [Example 83], the negative-log Ki (pKi) is 6.30.

Regarding `CC(C)C(=O)Nc1cccc(C2CCN(CC[C@H](Oc3ccc(-c4ccccc4)cc3)c3ccccc3)CC2)c1` [Example 134], the pKi was 7.42.

As to `CC(C)C(=O)Nc1cccc(C2CCN(CCCC(=O)c3ccc(Oc4ccccc4)cc3)CC2)c1` [Example 82], the pKi was 5.70.

The target in the next experiment is T2, rat MCH1 receptor (Rattus norvegicus, UniProt P97639).
T2 construct: expressed in transfected cells
T2 sequence (P97639 whole entry): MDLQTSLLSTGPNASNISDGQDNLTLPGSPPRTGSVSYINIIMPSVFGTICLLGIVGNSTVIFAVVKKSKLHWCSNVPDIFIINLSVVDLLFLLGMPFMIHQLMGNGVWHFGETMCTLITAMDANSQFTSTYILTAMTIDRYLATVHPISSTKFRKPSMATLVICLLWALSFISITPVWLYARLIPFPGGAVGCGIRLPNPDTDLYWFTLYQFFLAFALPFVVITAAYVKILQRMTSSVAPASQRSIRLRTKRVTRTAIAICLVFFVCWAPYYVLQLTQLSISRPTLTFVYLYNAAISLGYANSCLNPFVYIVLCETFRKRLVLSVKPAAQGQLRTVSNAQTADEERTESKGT
The experiment in a line: Binding affinity (Ki) at the rat MCH1 receptor. As to conditions: Examples 38-141; read-out: Ki (nM) rMCH1. As to the method:
For binding assays, pellets of transfected cells are suspended in ice-cold buffer (20 mM Tris.HCl, 5 mM EDTA, pH 7.4) and homogenized by sonication for 7 sec. The cell lysates are centrifuged at 200×g for 5 min at 4° C. The supernatants are then centrifuged at 40,000×g for 20 min at 4° C. The resulting pellets are washed once in the homogenization buffer and suspended in binding buffer (see methods for radioligand binding). Protein concentrations are determined by the method of Bradford (1976) using bovine serum albumin as the standard. Binding assays are usually performed immediately, however it is possible to prepare membranes in batch and store frozen in liquid nitrogen for future use.
Binding is performed at 25° C. for 1 hr. Incubations are terminated by rapid vacuum filtration over GF/C glass fiber filters, presoaked in 5% PEI using 50 mM Tris pH 7.4 containing 0.01% triton X-100 as wash buffer.
A methanolic solution of methyl (4S)-3-({[3-(4-[3-(acetylamino)phenyl]-3,6-dihydro-1(2H)pyridinyl)propyl]amino}carbonyl)-4-(3,4-difluorophenyl)-6-(methoxymethyl)-2-oxo-1,2,3,4-tetrahydro-5-pyrimidinecarboxylate was exposed to tritium gas at 1 atmosphere pressure in the presence of 5% palladium on carbon with stirring overnight to give the tritiated methyl (4S)-3-{[(3-{4-[3-(acetylamino)phenyl]-1-piperidinyl}propyl)amino]carbonyl}-4-(3,4-difluorophenyl)-6-(methoxymethyl)-2-oxo-1,2,3,4-tetrahydro-5-pyrimidinecarboxylate ((+)-isomer) After purification by reverse phase HPLC (Hypersil ODS, 4.6×100 mm, methanol:H2O:Et3N 10:90:1 to 100:0:1 in 15 min at 1.0 mL/min, with radiochemical and UV detection), this product was used as a radioligand in the MCH1 binding assays. The same procedure was carried out with H2 gas in place of ^3H2 to afford the non-radioactive version of Compound 10.
Turning to `COCC1=C(C(=O)NCCCN2CCC(c3cccc(NC(=O)CC(C)(C)C)c3)CC2)[C@@H](c2ccc(F)c(F)c2)NC(=O)N1` [Example 49], the Ki was determined as 225 nM.

On to `CC(=O)Nc1cccc(C2CCN(CCCC(=O)c3ccccc3)CC2)c1` [Example 73], for which the Ki turned out to be 342 nM.

On to `COCC(=O)Nc1cccc(C2CCN(CCCC(=O)c3ccc(C)c(C)c3)CC2)c1` [Example 62], for which the inhibition constant Ki is 274 nM.

With `COc1cccc(CC(=O)Nc2cccc(C3CCN(CCCC(=O)c4ccc(Oc5ccccc5)cc4)CC3)c2)c1` [Example 83], the Ki stood at 91 nM.

`CCS(=O)(=O)Nc1cccc(C2CCN(CCCC(=O)c3ccc(Cl)cc3)CC2)c1` [Example 72]: the inhibitory constant (Ki) turned out to be 272 nM.

With `COc1ccc(C(=O)CCCN2CCC(c3cccc(NC(=O)Cc4ccccc4)c3)CC2)c(OC)c1` [Example 79], the Ki came out at 1040 nM.

In the case of `CC(C)C(=O)Nc1cccc(C2CCN(CC[C@H](Oc3ccc(-c4ccccc4)cc3)c3ccccc3)CC2)c1` [Example 134], the Ki is 22.2 nM.

In the case of `CC(=O)Nc1cccc(C2CCN(CCCC(=O)c3ccc(Oc4ccccc4)cc3)CC2)c1` [Example 81], the Ki was 463 nM.

Consider `CC(C)C(=O)Nc1cccc(C2CCN(CC[C@@H](c3ccccc3)N3C(=O)c4ccccc4C3=O)CC2)c1` [Example 138], for which the Ki was 11.2 nM.

On to `CC(C)C(=O)Nc1cccc(C2CCN(CCCN3C(=O)c4ccccc4C3=O)CC2)c1` [Example 97], for which the inhibitory constant (Ki) is 946 nM.

Turning to `CC(=O)Nc1cccc(C2CCN(CCCC(=O)c3ccc(C(C)C)cc3)CC2)c1` [Example 86], the inhibition constant Ki was 382 nM.

Take `Cc1ccc(C(=O)CCCN2CCC(c3cccc(NS(C)(=O)=O)c3)CC2)cc1C` [Example 63]: the Ki turned out to be 1000 nM.

With `CC(C)C(=O)Nc1cccc(C2CCN(CCCC(=O)c3ccc(Oc4ccccc4)cc3)CC2)c1` [Example 82], the inhibitory constant (Ki) turned out to be 192 nM.

As to `COc1ccc(C(=O)CCCN2CCC(c3cccc(NC(C)=O)c3)CC2)c(OC)c1` [Example 77], the Ki is 630 nM.

`CCS(=O)(=O)Nc1cccc(C2CCN(CCCC(=O)c3ccc(C)c(C)c3)CC2)c1` [Example 64]: the inhibition constant (Ki) amounted to 627 nM.

For `CC(C)S(=O)(=O)Nc1cccc(C2CCN(CCCC(=O)c3ccc(Oc4ccccc4)cc3)CC2)c1` [Example 90], the inhibition constant Ki was found to be 651 nM.

Turning to `CC(C)C(=O)Nc1cccc(C2CCN(CC[C@H](O)c3ccccc3)CC2)c1` [Example 98], the Ki came out at 118 nM.

Turning to `CC(=O)Nc1cccc(C2CCN(CCCC(=O)c3ccc(C)cc3)CC2)c1` [Example 87], the Ki came to 362 nM.

Regarding `Cc1ccc(C(=O)CCCN2CCC(c3cccc(NC(=O)Cc4ccccc4)c3)CC2)cc1C` [Example 60], the inhibition constant Ki amounted to 357 nM.

In the case of `Cc1ccc(C(=O)CCCN2CCC(c3cccc(NC(=O)C4CCCCC4)c3)CC2)cc1C` [Example 59], the inhibition constant Ki amounted to 768 nM.

The experiment is the same for the next values; noted with them: Table 3c; read-out: rMCH1 Ki.
On to `COCC1=C(C(=O)NCCCN2CCC(c3cccc(NC(=O)CC(C)(C)C)c3)CC2)[C@@H](c2ccc(F)c(F)c2)NC(=O)N1` [Example 49], for which the negative logarithm of the Ki (pKi) is 6.65.

With `CC(=O)Nc1cccc(C2CCN(CCCC(=O)c3ccccc3)CC2)c1` [Example 73], the pKi is 6.47.

For the molecule `COCC(=O)Nc1cccc(C2CCN(CCCC(=O)c3ccc(C)c(C)c3)CC2)c1` [Example 62], the pKi was 6.56.

Turning to `COc1cccc(CC(=O)Nc2cccc(C3CCN(CCCC(=O)c4ccc(Oc5ccccc5)cc4)CC3)c2)c1` [Example 83], the pKi is 7.04.

With `CCS(=O)(=O)Nc1cccc(C2CCN(CCCC(=O)c3ccc(Cl)cc3)CC2)c1` [Example 72], the pKi was 6.57.

As for `COc1ccc(C(=O)CCCN2CCC(c3cccc(NC(=O)Cc4ccccc4)c3)CC2)c(OC)c1` [Example 79], the pKi was 5.98.

On to `CC(C)C(=O)Nc1cccc(C2CCN(CC[C@H](Oc3ccc(-c4ccccc4)cc3)c3ccccc3)CC2)c1` [Example 134], for which the negative logarithm of the Ki (pKi) was 7.65.

With `CC(=O)Nc1cccc(C2CCN(CCCC(=O)c3ccc(Oc4ccccc4)cc3)CC2)c1` [Example 81], the pKi is 6.33.

Regarding `CC(C)C(=O)Nc1cccc(C2CCN(CC[C@@H](c3ccccc3)N3C(=O)c4ccccc4C3=O)CC2)c1` [Example 138], the pKi is 7.95.

`CC(C)C(=O)Nc1cccc(C2CCN(CCCN3C(=O)c4ccccc4C3=O)CC2)c1` [Example 97]: the pKi was 6.02.

In the case of `CC(=O)Nc1cccc(C2CCN(CCCC(=O)c3ccc(C(C)C)cc3)CC2)c1` [Example 86], the negative-log Ki (pKi) is 6.42.

In the case of `Cc1ccc(C(=O)CCCN2CCC(c3cccc(NS(C)(=O)=O)c3)CC2)cc1C` [Example 63], the pKi was 6.00.

In the case of `CC(C)C(=O)Nc1cccc(C2CCN(CCCC(=O)c3ccc(Oc4ccccc4)cc3)CC2)c1` [Example 82], the negative-log Ki (pKi) is 6.72.

With `COc1ccc(C(=O)CCCN2CCC(c3cccc(NC(C)=O)c3)CC2)c(OC)c1` [Example 77], the pKi is 6.20.

As to `CCS(=O)(=O)Nc1cccc(C2CCN(CCCC(=O)c3ccc(C)c(C)c3)CC2)c1` [Example 64], the pKi was 6.20.

With `CC(C)S(=O)(=O)Nc1cccc(C2CCN(CCCC(=O)c3ccc(Oc4ccccc4)cc3)CC2)c1` [Example 90], the pKi was 6.19.

Take `CC(C)C(=O)Nc1cccc(C2CCN(CC[C@H](O)c3ccccc3)CC2)c1` [Example 98]: the negative logarithm of the Ki (pKi) is 6.93.

As for `CC(=O)Nc1cccc(C2CCN(CCCC(=O)c3ccc(C)cc3)CC2)c1` [Example 87], the pKi was 6.44.

As for `Cc1ccc(C(=O)CCCN2CCC(c3cccc(NC(=O)Cc4ccccc4)c3)CC2)cc1C` [Example 60], the negative logarithm of the Ki (pKi) was 6.45.

With `Cc1ccc(C(=O)CCCN2CCC(c3cccc(NC(=O)C4CCCCC4)c3)CC2)cc1C` [Example 59], the negative-log Ki (pKi) is 6.11.

A further experiment has as its target T3, human Alpha-1a Adrenergic receptor (Homo sapiens, UniProt P35348).
T3 construct: expressed in transfected cells
T3 sequence (P35348 1-466): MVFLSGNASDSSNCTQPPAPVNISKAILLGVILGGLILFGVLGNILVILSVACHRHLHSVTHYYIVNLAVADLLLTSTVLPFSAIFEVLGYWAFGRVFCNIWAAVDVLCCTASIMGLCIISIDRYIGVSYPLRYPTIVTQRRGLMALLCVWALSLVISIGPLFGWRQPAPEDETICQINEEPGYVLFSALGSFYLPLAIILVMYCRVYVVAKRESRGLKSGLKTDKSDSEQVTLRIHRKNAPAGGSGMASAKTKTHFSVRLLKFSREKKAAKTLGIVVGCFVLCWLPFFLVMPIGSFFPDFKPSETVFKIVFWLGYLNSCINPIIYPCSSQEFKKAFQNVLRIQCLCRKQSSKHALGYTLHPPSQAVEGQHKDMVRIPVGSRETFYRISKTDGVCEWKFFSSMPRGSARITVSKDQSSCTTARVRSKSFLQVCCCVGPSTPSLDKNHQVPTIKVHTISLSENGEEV
The experiment in a line: Binding affinity at the human alpha-1A adrenergic receptor. The settings on record: Table 3c; read-out: hAlpha-1a Ki.
Source text: as §1
In the case of `COc1cccc(CC(=O)Nc2cccc(C3CCN(CCCC(=O)c4ccc(Oc5ccccc5)cc4)CC3)c2)c1` [Example 83], the negative-log Ki (pKi) was 6.89.

On to `CC(C)C(=O)Nc1cccc(C2CCN(CC[C@H](Oc3ccc(-c4ccccc4)cc3)c3ccccc3)CC2)c1` [Example 134], for which the pKi was 5.88.

For `CC(C)C(=O)Nc1cccc(C2CCN(CCCC(=O)c3ccc(Oc4ccccc4)cc3)CC2)c1` [Example 82], the pKi is 6.29.
